# Laboratory results: patent US20250151724A1, “Liquid Soil Treatments Containing Choline” (Harrell's, LLC, priority 2023, published 2025)
# Test system: creeping bentgrass putting greens
# Test: Experiment No. 5: putting green field trial of Fleet100 and choline alone or in combination
# Assay type: in vivo
# Settings: Fleet100 5 fl oz, choline 0.25 oz/1000 ft^2 monthly
# Description: There were 4 treatments with 4 replications. Plot size was 5×6 ft. Regular mowing and irrigation were performed. A randomized block design was used. Fleet® 100 was supplied by […]) and choline from Sigma-Aldrich, Inc. (St. Louis, MO) were used in this study. The treatments were as follows: • 1. […] N/1,000 ft^2 biweekly • 3. […] N/1,000 ft^2 biweekly • 4. […] The trial lasted for 12 weeks and a total of 3 treatment applications. […] Leaf chlorophyll content. Leaf samples were collected biweekly and chlorophyll content was determined using the spectrophotometer method described by Zhang et al. (2005). • e. Volumetric water content. […] At day 9 of the dry down cycles, leaf samples were collected and leaf proline content was analyzed. Irrigation was resumed after day 9 of each dry down cycle. […] Leaf proline content. Leaf samples were collected at the end of each dry down cycle and proline content was measured by using the method described by Wu et al. (2017). • g. Root characteristics, biomass, and viability. […] The root length, root diameter, root surface area, and root volume were analyzed using WinRHIZO technology. Briefly, after fine cleaning of each root sample, the sample from each plot was divided into multiple subsamples. Each subsample was scanned using WinRHIZO and all root morphological parameters were generated and analyzed. In addition, root viability was analyzed using TTC method (Zhang et al., 2017). Root viability is a good indicator of root function.
smiles,measurement,setting,value
"C[N+](C)(C)CCO.[Cl-] [Choline, choline chloride]",Chlorophyll Content,day 0,2.45a mg/g fresh weight
same,"Leaf color (1-9, 9 = dark green)",day 0,7.5a
same,Photochemical Efficiency (Fv/Fm),day 0,0.720a
same,"Turf quality (1-9, 9 = best)",day 0,7.5a
same,Chlorophyll Content,day 14,2.90a mg/g fresh weight
same,"Leaf color (1-9, 9 = dark green)",day 14,7.6ab
same,Photochemical Efficiency (Fv/Fm),day 14,0.696a
same,"Turf quality (1-9, 9 = best)",day 14,7.4a
same,"Leaf color (1-9, 9 = dark green)",day 22,7.4a
same,Photochemical Efficiency (Fv/Fm),day 22,0.664a
same,"Turf quality (1-9, 9 = best)",day 22,6.8ab
same,Proline,day 22 (end of 1st dry-down cycle),467.0a ug/g FW
same,Chlorophyll Content,day 28,3.85a mg/g fresh weight
same,"Leaf color (1-9, 9 = dark green)",day 28,7.8a
same,Photochemical Efficiency (Fv/Fm),day 28,0.761a
same,"Turf quality (1-9, 9 = best)",day 28,7.6b
same,Photochemical Efficiency (Fv/Fm),day 40,0.714a
same,Chlorophyll Content,day 42,3.03a mg/g fresh weight
same,"Leaf color (1-9, 9 = dark green)",day 42,6.9ab
same,Photochemical Efficiency (Fv/Fm),day 42,0.634a
same,"Turf quality (1-9, 9 = best)",day 42,6.5b
same,Proline,day 42 (end of 2nd dry-down cycle),538.0a ug/g FW
same,Chlorophyll Content,day 56,3.46a mg/g fresh weight
same,"Leaf color (1-9, 9 = dark green)",day 56,7.7ab
same,Photochemical Efficiency (Fv/Fm),day 56,0.729a
same,"Turf quality (1-9, 9 = best)",day 56,7.4b
same,Chlorophyll Content,day 70,2.79b mg/g fresh weight
same,"Leaf color (1-9, 9 = dark green)",day 70,7.4ab
same,Photochemical Efficiency (Fv/Fm),day 70,0.733ab
same,"Turf quality (1-9, 9 = best)",day 70,7.2ab
same,Chlorophyll Content,day 84,2.57a mg/g fresh weight
same,"Leaf color (1-9, 9 = dark green)",day 84,7.4b
same,Photochemical Efficiency (Fv/Fm),day 84,0.733ab
same,"Turf quality (1-9, 9 = best)",day 84,7.3b
same,Root Biomass,end of trial,2.14ab mg/cm^3
same,Root Diameter,end of trial,0.187b mm
same,Root Length,end of trial,118.2a cm/cm^3
same,Root SA,end of trial,7.02ab cm^2/cm^3
same,Root Volume,end of trial,33.4ab cm^3/dm^3
same,Root Viability,"end of trial, TTC method",0.49a A490/g FW
